Experimental data: ChEMBL document CHEMBL2311529, “Structure-activity relationships in 1,4-benzodioxan-related compounds. 11. (1) reversed enantioselectivity of 1,4-dioxane derivatives in α1-adrenergic and 5-HT1A receptor binding sites recognition” (J Med Chem, 2013)

How the values were obtained:
[1] = system: PC-3; test: Cytotoxicity against human PC3 cells after 48 hrs by sulforhodamine B assay; type: functional; conditions: PC-3, 48 h
[2] = target: T1, Alpha-1A adrenergic receptor (Homo sapiens, UniProt P35348); test: biochemical
T1 sequence (P35348 whole entry): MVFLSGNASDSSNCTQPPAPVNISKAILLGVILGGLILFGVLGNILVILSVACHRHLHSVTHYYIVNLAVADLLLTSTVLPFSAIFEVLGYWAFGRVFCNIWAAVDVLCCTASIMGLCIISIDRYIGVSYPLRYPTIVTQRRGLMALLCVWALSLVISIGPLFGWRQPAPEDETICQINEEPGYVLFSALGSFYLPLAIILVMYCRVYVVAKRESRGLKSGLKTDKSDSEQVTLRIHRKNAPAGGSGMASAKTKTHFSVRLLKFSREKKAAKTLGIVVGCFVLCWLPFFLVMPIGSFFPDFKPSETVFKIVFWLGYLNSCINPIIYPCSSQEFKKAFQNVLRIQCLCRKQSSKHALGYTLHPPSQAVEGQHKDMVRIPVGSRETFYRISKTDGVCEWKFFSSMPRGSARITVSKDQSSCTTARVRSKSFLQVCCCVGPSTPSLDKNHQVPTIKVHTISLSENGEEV
Description: Displacement of [3H]prazosin from human recombinant alpha1A adrenergic receptor expressed in CHO cell membranes after 30 mins

[3] = target: T2, 5-hydroxytryptamine receptor 1A (Homo sapiens) (UniProt P08908); conditions: HeLa
T2 sequence (whole entry): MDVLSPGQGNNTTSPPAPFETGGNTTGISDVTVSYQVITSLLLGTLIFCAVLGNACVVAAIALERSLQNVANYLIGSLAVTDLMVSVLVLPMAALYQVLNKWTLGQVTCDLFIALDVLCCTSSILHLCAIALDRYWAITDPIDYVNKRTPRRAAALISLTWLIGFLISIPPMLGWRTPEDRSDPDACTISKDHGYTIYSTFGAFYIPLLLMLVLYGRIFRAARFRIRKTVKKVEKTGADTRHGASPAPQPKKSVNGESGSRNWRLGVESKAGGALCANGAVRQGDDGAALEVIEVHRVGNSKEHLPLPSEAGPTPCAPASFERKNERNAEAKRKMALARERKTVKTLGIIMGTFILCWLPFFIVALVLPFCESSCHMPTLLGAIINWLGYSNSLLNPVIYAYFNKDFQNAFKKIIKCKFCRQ
Description: Agonist activity at human 5HT1A receptor expressed in HeLa cell membranes by [35S]GTPgammaS binding assay

[4] = target: T3, Alpha-1D adrenergic receptor (Homo sapiens, UniProt P25100); test: Displacement of [3H]prazosin from human recombinant alpha1D adrenergic receptor expressed in CHO cell membranes after 30 mins
T3 sequence (P25100 whole entry): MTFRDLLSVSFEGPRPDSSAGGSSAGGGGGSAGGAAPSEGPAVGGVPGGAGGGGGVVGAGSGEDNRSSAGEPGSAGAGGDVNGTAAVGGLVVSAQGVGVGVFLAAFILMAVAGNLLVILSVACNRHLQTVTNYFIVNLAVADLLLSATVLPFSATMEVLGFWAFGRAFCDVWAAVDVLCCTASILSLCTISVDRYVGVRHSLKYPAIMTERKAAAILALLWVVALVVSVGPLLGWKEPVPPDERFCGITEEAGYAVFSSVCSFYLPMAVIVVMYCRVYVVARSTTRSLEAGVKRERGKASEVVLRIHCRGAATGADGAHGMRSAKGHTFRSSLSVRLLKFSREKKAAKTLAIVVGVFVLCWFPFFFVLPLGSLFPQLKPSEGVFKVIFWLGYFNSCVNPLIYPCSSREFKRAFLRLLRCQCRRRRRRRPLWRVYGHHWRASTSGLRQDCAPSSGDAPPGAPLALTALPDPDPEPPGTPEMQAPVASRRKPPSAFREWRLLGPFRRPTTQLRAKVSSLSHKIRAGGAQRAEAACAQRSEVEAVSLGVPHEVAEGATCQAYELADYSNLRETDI

[5] = target: T4, Alpha-1B adrenergic receptor (Homo sapiens, UniProt P35368); test: Displacement of [3H]prazosin from human recombinant alpha1B adrenergic receptor expressed in CHO cell membranes after 30 mins
T4 sequence (P35368 whole entry): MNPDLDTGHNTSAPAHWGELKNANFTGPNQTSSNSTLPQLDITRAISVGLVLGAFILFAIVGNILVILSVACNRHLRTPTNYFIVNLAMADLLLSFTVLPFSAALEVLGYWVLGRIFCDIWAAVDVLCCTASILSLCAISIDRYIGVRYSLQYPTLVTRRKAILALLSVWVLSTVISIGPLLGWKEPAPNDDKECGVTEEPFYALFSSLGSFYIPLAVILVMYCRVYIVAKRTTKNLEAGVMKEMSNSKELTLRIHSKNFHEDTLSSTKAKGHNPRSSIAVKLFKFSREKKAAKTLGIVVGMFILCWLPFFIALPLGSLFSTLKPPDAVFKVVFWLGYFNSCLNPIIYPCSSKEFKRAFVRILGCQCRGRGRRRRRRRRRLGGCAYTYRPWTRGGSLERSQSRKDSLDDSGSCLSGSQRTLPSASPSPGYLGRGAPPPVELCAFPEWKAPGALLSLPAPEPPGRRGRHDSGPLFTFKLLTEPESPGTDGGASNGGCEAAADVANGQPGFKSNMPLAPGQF

[6] = target: T5, 5-hydroxytryptamine receptor 1A (Homo sapiens, UniProt P08908); test: Displacement of [3H]8-OH-DPAT from human recombinant 5HT1A receptor expressed in HeLa cell membranes after 30 mins
T5 sequence (P08908 whole entry): T2 sequence (whole entry)

[7] = system: PC-3; test: Cytotoxicity against human PC3 cells assessed as concentration required for tumor growth inhibition after 48 hrs by sulforhodamine B assay; type: functional; conditions: PC-3, 48 h
[8] = target: T2, 5-hydroxytryptamine receptor 1A (Homo sapiens); conditions: HeLa; remark: listed apart in the source
Description: Partial agonist activity at human 5HT1A receptor expressed in HeLa cell membranes after 20 mins by [35S]GTPgammaS binding assay

[9] = system: PC-3; test: Cytotoxicity against human PC3 cells transfected with sialpha1D-AR assessed as concentration required for tumor growth inhibition after 48 hrs by sulforhodamine B assay; type: functional; conditions: PC-3, 48 h
[10] = system: PC-3; test: Cytotoxicity against human PC3 cells transfected with siGLO after 48 hrs by sulforhodamine B assay; type: functional; conditions: PC-3, 48 h; for CC50: read-out: LC50 (the source's name)
[11] = system: PC-3; test: Cytotoxicity against human PC3 cells transfected with siGLO assessed as concentration required for tumor growth inhibition after 48 hrs by sulforhodamine B assay; type: functional; conditions: PC-3, 48 h
[12] = system: PC-3; test: Cytotoxicity against human PC3 cells transfected with sialpha1D-AR after 48 hrs by sulforhodamine B assay; type: functional; conditions: PC-3, 48 h; for CC50: read-out: LC50 (the source's name)
[13] = system: PC-3; test: Ratio of LC50 for human PC3 cells transfected with sialpha1D-AR to LC50 for human PC3 cells; type: functional
[14] = system: PC-3; test: Ratio of concentration required for tumor growth inhibition of human PC3 cells transfected with sialpha1D-AR to concentration required for tumor growth inhibition of human PC3 cells; type: functional
[15] = system: PC-3; test: Ratio of GI50 for human PC3 cells transfected with sialpha1D-AR to GI50 for human PC3 cells; type: functional

Compound | GI50 [1] [nM] | Ki [2] [nM] | pD2 [3] | LC50 [1] [nM] | Ki [4] [nM] | Ki [5] [nM] | Ki [6] [nM] | TGI [7] [nM] | pD2 [8] | TGI [9] [nM] | GI50 [10] [nM] | CC50 [10] [nM] | TGI [11] [nM] | GI50 [12] [nM] | CC50 [12] [nM] | RatioLC50 [13] | Ratio [14] | RatioGI50 [15]
COc1cc2nc(N3CCN(C(=O)C4COc5ccccc5O4)CC3)nc(N)c2cc1OC (stereo unspecified) [DOXAZOSIN] | 26900 | – | – | – | – | – | – | – | – | – | – | – | – | – | – | – | – | –
COc1cccc(OC)c1OCCNCC1COCC(c2ccccc2)(c2ccccc2)O1 (racemic) | 14000 | 339 | 8.28 | 45000 | 66.1 | 324 | 1.41 | 32000 | – | – | – | – | – | – | – | – | – | –
NCCc1c[nH]c2ccc(O)cc12 | – | – | 7.3 | – | – | – | – | – | – | – | – | – | – | – | – | – | – | –
COc1ccccc1OCCNCC1COCC(c2ccccc2)(c2ccccc2)O1 (racemic) | 9000 | 27.5 | 9.4 | – | 1.15 | 56.2 | 0.661 | 16000 | – | – | – | – | – | – | – | – | – | –
COc1cccc(OC)c1OCCNCC1COc2ccccc2O1 (stereo unspecified) | 64600 | – | – | – | – | – | – | – | – | – | – | – | – | – | – | – | – | –
COc1ccccc1N1CCN(CCN2C(=O)CC3(CCCC3)CC2=O)CC1 | – | – | 9.27 | – | – | – | – | – | – | – | – | – | – | – | – | – | – | –
COc1cccc(OC)c1OCCNC[C@H]1COc2ccccc2O1 | – | – | – | – | – | – | 2.45 | – | – | – | – | – | – | – | – | – | – | –
COc1ccccc1OCCNC[C@H]1COCC(c2ccccc2)(c2ccccc2)O1 | 21000 | 257 | – | – | 25.1 | 417 | 0.309 | 34000 | 9.19 | – | – | – | – | – | – | – | – | –
COc1ccccc1OCCNC[C@@H]1COCC(c2ccccc2)(c2ccccc2)O1 | 4000 | 16.6 | – | – | 1.38 | 21.9 | 0.603 | 9000 | 7.7 | – | – | – | – | – | – | – | – | –
c1ccc(OCCNC[C@H]2COCC(c3ccccc3)(c3ccccc3)O2)cc1 | 19100 | 437 | – | > 300000 | 83.2 | 170 | 0.398 | 43000 | 9.19 | 49200 | 22800 | > 300000 | 41700 | 20700 | > 300000 | – | – | –
COc1cccc(OC)c1OCCNC[C@@H]1COCC(c2ccccc2)(c2ccccc2)O1 | 32000 | 166 | 5.88 | 65000 | 56.2 | 195 | 44.7 | 58000 | – | – | – | – | – | – | – | – | – | –
COc1cccc(OC)c1OCCNC[C@H]1COCC(c2ccccc2)(c2ccccc2)O1 | 16000 | > 1000 | 8.3 | 37000 | 724 | 1660 | 0.55 | 30000 | – | – | – | – | – | – | – | – | – | –
c1ccc(OCCNCC2COCC(c3ccccc3)(c3ccccc3)O2)cc1 (racemic) | 3000 | 170 | 9.11 | 8000 | 3.63 | 120 | 0.589 | 6000 | – | 25000 | 4100 | 10700 | 7100 | 23600 | 39800 | – | – | –
COc1cccc(OC)c1OCCNC[C@@H]1COc2ccccc2O1 | – | – | – | – | – | – | 40.7 | – | – | – | – | – | – | – | – | – | – | –
c1ccc(OCCNC[C@@H]2COCC(c3ccccc3)(c3ccccc3)O2)cc1 | 600 | 129 | – | 4000 | 3.24 | 52.5 | 1.48 | 2100 | 7.82 | 27100 | 900 | 5800 | 2500 | 10200 | 52100 | 13 | 12.9 | 17
